Results from patent US20240382629A1, “HETEROBIVALENT AND HOMOBIVALENT AGENTS TARGETING FIBROBLAST ACTIVATION PROTEIN ALPHA AND/OR PROSTATE-SPECIFIC MEMBRANE ANTIGEN” (The Johns Hopkins University, priority 2021, published 2024).
Values joined by “and” are separate entries in the source; they are usually repeats but may differ in a detail not shown here. Equal values may be shown once.

Assay: Biodistribution of [^18F]JHU122047 with UAMC-01110 blocker
Assay type: in vivo, mouse
[1] = + Blocker UAMC-01110, 1 hr post injection, mean
[2] = + Vehicle, 1 hr post injection, mean
[3] = individual mouse, NOD/SCID, 120 min
[4] = individual mouse, NUDE, 120 min
[5] = mean (one sample; gamma counter error), NOD/SCID, 120 min

For `N#C[C@@H]1CCCN1C(=O)CNC(=O)c1ccnc2ccc(OCCF)cc12` [[^18F]JHU122047], the “% ID/g Mean Bladder” value [1] was 2.10 % ID/g, the “% ID/g Mean Bladder” value [2] was 1.13 % ID/g and the “% ID/g Mean Blood” value (Blood, + Blocker UAMC-01110, 1 hr post injection, mean) was 0.12 % ID/g. For the same molecule, the “% ID/g Mean Blood” value (Blood, + Vehicle, 1 hr post injection, mean) was 0.36 % ID/g, the “% ID/g Blood” value (Blood, + Vehicle, 1 hr post injection, single mouse) was 0.38 % ID/g and 0.34 % ID/g and the “% ID/g Mean Brain” value [1] was 0.19 % ID/g. For the same molecule, the “% ID/g Mean Brain” value [2] was 0.14 % ID/g, the “% ID/g Mean Fat” value [1] was 0.08 % ID/g and the “% ID/g Mean Fat” value [2] was 0.11 % ID/g. For the same molecule, the “% ID/g Mean Heart” value (Heart, + Blocker UAMC-01110, 1 hr post injection, mean) was 0.38 % ID/g, the “% ID/g Mean Heart” value (Heart, + Vehicle, 1 hr post injection, mean) was 0.35 % ID/g and the “% ID/g Heart” value (Heart, + Vehicle, 1 hr post injection, single mouse) was 0.35 % ID/g. The “% ID/g Mean Kidney” value [1] was 0.60 % ID/g, the “% ID/g Mean Kidney” value [2] was 1.25 % ID/g and the “% ID/g Mean Large intestine” value [1] was 2.19 % ID/g. The “% ID/g Mean Large intestine” value [2] was 0.99 % ID/g, the “% ID/g Mean Liver” value (Liver, + Blocker UAMC-01110, 1 hr post injection, mean) was 0.66 % ID/g and the “% ID/g Mean Liver” value (Liver, + Vehicle, 1 hr post injection, mean) was 0.68 % ID/g. For the same molecule, the “% ID/g Liver” value (Liver, + Vehicle, 1 hr post injection, single mouse) was 0.67 % ID/g, the “% ID/g Mean Lung” value (Lung, + Blocker UAMC-01110, 1 hr post injection, mean) was 0.33 % ID/g and the “% ID/g Mean Lung” value (Lung, + Vehicle, 1 hr post injection, mean) was 0.36 % ID/g. The “% ID/g Lung” value (Lung, + Vehicle, 1 hr post injection, single mouse) was 0.34 % ID/g and 0.37 % ID/g, the “% ID/g Mean Muscle” value [1] was 0.27 % ID/g and the “% ID/g Mean Muscle” value [2] was 0.34 % ID/g. For the same molecule, the “% ID/g Mean Pancreas” value [1] was 0.23 % ID/g, the “% ID/g Mean Pancreas” value [2] was 0.33 % ID/g and the “% ID/g Mean Salivary gland” value [1] was 0.28 % ID/g. The “% ID/g Mean Salivary gland” value [2] was 0.58 % ID/g, the “% ID/g Mean Small intestine” value [1] was 8.53 % ID/g and the “% ID/g Mean Small intestine” value [2] was 2.48 % ID/g. The “% ID/g Mean Spleen” value [1] was 0.28 % ID/g, the “% ID/g Mean Spleen” value [2] was 0.26 % ID/g and the “% ID/g Mean Stomach” value [1] was 0.50 % ID/g. For the same molecule, the “% ID/g Mean Stomach” value [2] was 0.32 % ID/g, the “% ID/g Mean Tumor” value [1] was 0.45 % ID/g and the “% ID/g Mean Tumor” value [2] was 1.96 % ID/g. The “Bladder % ID/g” value (individual mouse) was 12.70 % ID/g and 11.31 % ID/g, the “Brain % ID/g” value (individual mouse) was 0.02 % ID/g and 0.08 % ID/g and the “Fat % ID/g” value (individual mouse) was 0.07 % ID/g and 0.10 % ID/g. The “Femur % ID/g” value (individual mouse) was 0.87 % ID/g and 0.43 % ID/g, the “Kidney % ID/g” value (individual mouse) was 1.61 % ID/g and 1.54 % ID/g and the “Large intestine % ID/g” value (individual mouse) was 0.18 % ID/g and 0.19 % ID/g. The “Liver % ID/g” value (individual mouse) was 1.74 % ID/g and 1.65 % ID/g, the “Muscle % ID/g” value (individual mouse) was 0.07 % ID/g and 0.12 % ID/g and the “Pancreas % ID/g” value (individual mouse) was 0.07 % ID/g and 0.19 % ID/g. For the same molecule, the “Salivary gland % ID/g” value (individual mouse) was 0.12 % ID/g and 0.14 % ID/g, the “Small intestine % ID/g” value (individual mouse) was 0.48 % ID/g and 0.45 % ID/g and the “Spleen % ID/g” value (individual mouse) was 0.10 % ID/g and 0.15 % ID/g. The “Stomach % ID/g” value (individual mouse) was 0.18 % ID/g and 0.17 % ID/g, the “Tumor % ID/g” value (individual mouse) was 0.21 % ID/g and 0.23 % ID/g and the “Bladder % ID/g” value [3] was 3.86 % ID/g. For the same molecule, the “Blood % ID/g” value [3] was 0.40 % ID/g and 0.47 % ID/g, the “Brain % ID/g” value [3] was 0.04 % ID/g and the “Fat % ID/g” value [3] was 0.09 % ID/g and 0.18 % ID/g. For the same molecule, the “Femur % ID/g” value [3] was 1.59 % ID/g, the “Heart % ID/g” value [3] was 0.20 % ID/g and 0.29 % ID/g and the “Kidney % ID/g” value [3] was 1.51 % ID/g and 1.58 % ID/g. For the same molecule, the “Large intestine % ID/g” value [3] was 0.30 % ID/g and 0.45 % ID/g, the “Liver % ID/g” value [3] was 1.11 % ID/g and 0.88 % ID/g and the “Lung % ID/g” value [3] was 0.36 % ID/g and 0.57 % ID/g. For the same molecule, the “Muscle % ID/g” value [3] was 0.25 % ID/g and 0.35 % ID/g, the “Pancreas % ID/g” value [3] was 0.38 % ID/g and 0.77 % ID/g and the “Salivary gland % ID/g” value [3] was 0.74 % ID/g and 0.62 % ID/g. For the same molecule, the “Small intestine % ID/g” value [3] was 0.38 % ID/g and 0.95 % ID/g, the “Spleen % ID/g” value [3] was 0.26 % ID/g and 0.36 % ID/g and the “Stomach % ID/g” value [3] was 0.22 % ID/g and 0.35 % ID/g. For the same molecule, the “Tumor % ID/g” value [3] was 3.13 % ID/g, the “Bladder % ID/g” value [4] was 1.31 % ID/g and 1.80 % ID/g and the “Blood % ID/g” value [4] was 0.66 % ID/g and 0.56 % ID/g. For the same molecule, the “Brain % ID/g” value [4] was 0.05 % ID/g and 0.06 % ID/g, the “Fat % ID/g” value [4] was 0.13 % ID/g and 0.10 % ID/g and the “Femur % ID/g” value [4] was 2.27 % ID/g and 2.55 % ID/g. The “Heart % ID/g” value [4] was 0.34 % ID/g and 0.28 % ID/g, the “Kidney % ID/g” value [4] was 1.50 % ID/g and 1.43 % ID/g and the “Large intestine % ID/g” value [4] was 0.34 % ID/g and 0.41 % ID/g. The “Liver % ID/g” value [4] was 0.45 % ID/g and 0.42 % ID/g, the “Lung % ID/g” value [4] was 0.49 % ID/g and 0.56 % ID/g and the “Muscle % ID/g” value [4] was 0.49 % ID/g and 0.45 % ID/g. The “Pancreas % ID/g” value [4] was 0.53 % ID/g and 0.34 % ID/g, the “Salivary gland % ID/g” value [4] was 1.02 % ID/g and 0.78 % ID/g and the “Small intestine % ID/g” value [4] was 0.35 % ID/g and 0.31 % ID/g. The “Spleen % ID/g” value [4] was 0.22 % ID/g, the “Stomach % ID/g” value [4] was 0.27 % ID/g and 0.25 % ID/g and the “Tumor % ID/g” value [4] was 2.65 % ID/g and 3.51 % ID/g. For the same molecule, the “Bladder % ID/g” value (mean) was 12.01 % ID/g, the “Brain % ID/g” value (mean) was 0.02 % ID/g and the “Fat % ID/g” value (mean) was 0.08 % ID/g. For the same molecule, the “Femur % ID/g” value (mean) was 0.40 % ID/g, the “Kidney % ID/g” value (mean) was 1.57 % ID/g and the “Large intestine % ID/g” value (mean) was 0.18 % ID/g. The “Liver % ID/g” value (mean) was 1.70 % ID/g, the “Lung % ID/g” value (mean) was 0.38 % ID/g and the “Muscle % ID/g” value (mean) was 0.09 % ID/g. For the same molecule, the “Pancreas % ID/g” value (mean) was 0.10 % ID/g, the “Salivary gland % ID/g” value (mean) was 0.13 % ID/g and the “Small intestine % ID/g” value (mean) was 0.47 % ID/g. The “Spleen % ID/g” value (mean) was 0.13 % ID/g, the “Stomach % ID/g” value (mean) was 0.17 % ID/g and the “Tumor % ID/g” value (mean) was 0.22 % ID/g. For the same molecule, the “Bladder % ID/g” value [5] was 3.86 % ID/g, the “Femur % ID/g” value [5] was 1.59 % ID/g and the “Tumor % ID/g” value [5] was 3.13 % ID/g. For the same molecule, the “Blood % ID/g” value (mean, NOD/SCID, 120 min) was 0.43 % ID/g, the “Brain % ID/g” value (mean, NOD/SCID, 120 min) was 0.04 % ID/g and the “Fat % ID/g” value (mean, NOD/SCID, 120 min) was 0.11 % ID/g. For the same molecule, the “Heart % ID/g” value (mean, NOD/SCID, 120 min) was 0.24 % ID/g, the “Kidney % ID/g” value (mean, NOD/SCID, 120 min) was 1.55 % ID/g and the “Large intestine % ID/g” value (mean, NOD/SCID, 120 min) was 0.37 % ID/g. For the same molecule, the “Liver % ID/g” value (mean, NOD/SCID, 120 min) was 1.00 % ID/g, the “Lung % ID/g” value (mean, NOD/SCID, 120 min) was 0.47 % ID/g and the “Muscle % ID/g” value (mean, NOD/SCID, 120 min) was 0.30 % ID/g. The “Pancreas % ID/g” value (mean, NOD/SCID, 120 min) was 0.57 % ID/g, the “Salivary gland % ID/g” value (mean, NOD/SCID, 120 min) was 0.58 % ID/g and the “Small intestine % ID/g” value (mean, NOD/SCID, 120 min) was 0.67 % ID/g. For the same molecule, the “Spleen % ID/g” value (mean, NOD/SCID, 120 min) was 0.31 % ID/g, the “Stomach % ID/g” value (mean, NOD/SCID, 120 min) was 0.28 % ID/g and the “Bladder % ID/g” value (mean, NUDE, 120 min) was 1.55 % ID/g. The “Blood % ID/g” value (mean, NUDE, 120 min) was 0.61 % ID/g, the “Brain % ID/g” value (mean, NUDE, 120 min) was 0.06 % ID/g and the “Fat % ID/g” value (mean, NUDE, 120 min) was 0.12 % ID/g. The “Femur % ID/g” value (mean, NUDE, 120 min) was 2.41 % ID/g, the “Heart % ID/g” value (mean, NUDE, 120 min) was 0.31 % ID/g and the “Kidney % ID/g” value (mean, NUDE, 120 min) was 1.46 % ID/g. For the same molecule, the “Large intestine % ID/g” value (mean, NUDE, 120 min) was 0.37 % ID/g, the “Liver % ID/g” value (mean, NUDE, 120 min) was 0.44 % ID/g and the “Lung % ID/g” value (mean, NUDE, 120 min) was 0.53 % ID/g. The “Muscle % ID/g” value (mean, NUDE, 120 min) was 0.47 % ID/g, the “Pancreas % ID/g” value (mean, NUDE, 120 min) was 0.43 % ID/g and the “Salivary gland % ID/g” value (mean, NUDE, 120 min) was 0.90 % ID/g. For the same molecule, the “Small intestine % ID/g” value (mean, NUDE, 120 min) was 0.33 % ID/g, the “Spleen % ID/g” value (mean, NUDE, 120 min) was 0.22 % ID/g and the “Stomach % ID/g” value (mean, NUDE, 120 min) was 0.26 % ID/g. For the same molecule, the “Tumor % ID/g” value (mean, NUDE, 120 min) was 3.08 % ID/g.
